The values below are quoted from earlier work in US20240285640A1, “COMBINATION THERAPY FOR TREATING PIK3CA-MUTATED CANCER” (ADLAI NORTYE BIOPHARMA CO., LTD., priority 2020, published 2024).

The test system of series [1] is breast cancer caused by PI3K/PIK3CA mutations. As to conditions: patients; Campone M et al. 2018.
Series [2] concerns immunosuppressive cells in the tumor microenvironment. The settings on record: preclinical studies; by inhibiting the PGE2/EP-4 signaling pathway.
Series [3] concerns advanced solid tumors. The settings on record: phase I FIH, a variety of advanced solid tumors.
Series [4] has as its system colorectal cancer. The settings on record: combined with radiotherapy and chemotherapy; Wyrwicz et al., ESMO2019.

As for `Nc1cc(C(F)(F)F)c(-c2cc(N3CCOCC3)nc(N3CCOCC3)n2)cn1` [AN2025, Buparlisib], the clinical efficacy entry in series [1] is given as “effective”.
In the case of `C[C@H](NC(=O)c1c(C(F)F)nn(C)c1Oc1cccc(C(F)(F)F)c1)c1ccc(C(=O)O)cc1` [AN0025], the “reduction of immunosuppressive cells in the tumor microenvironment” value in series [2] is recorded as “effectively reduce”. Further, the “clinical effect as single drug” value in series [3] is listed as “certain single-drug effect”. In addition, the clinical efficacy result in series [4] was “strong clinical efficacy”.
